Entries after “also recorded” stand apart in the source; their conditions may differ. Like-named read-outs stand apart in the source and are kept apart here.
Key:
[1] = Solubility of Piroxicam with solubilizers; assay type: physicochemical
Description: This invention employs a solubilizing agent to dissolve piroxicam in bases for formulation; the piroxicam-solubilizing agent is selected from the class of alkanolamines. […] The monoalkanolamines have from one to four carbon atoms and include methanolamine, ethanolamine, propanolamine and butanolamine. The dialkanolamines have from two to eight carbon atoms and include dimethanolamine, diethanolamine, dipropanolamine and dibutanolamine. The trialkanolamines have from three to twelve carbon atoms and include trimethanolamine, triethanolamine, tripropanolamine and tributanolamine.

[2] = tested on: carragenin-induced foot edema; test: Carragenin-induced rat foot edema test; assay type: in vivo; conditions: oral administration, 1 mg./kg.
Description: The anti-inflammatory activity of the compositions of this invention was determined using the standard carragenin-induced rat foot edema test. [C. A. Winter et al., Proceedings of the Society for Experimental Biology and Medicine, Vol. 111, p. 544 (1962)]. Piroxicam ointment (1%), prepared according to Example 10, was administered topically at a dose level of 100 mg. per rat. The results obtained are presented in the table below (Table 6) in terms of the percent inhibition of edema formation, as compared to the non-drug treated control and the oral administration of piroxicam (1 mg./kg.): […]

[3] = At a higher pH than 9.0; cited from earlier work
[4] = words, background; cited from earlier work
[5] = cited from earlier work

| SMILES | Solubility of Piroxicam ([1]; Ammonia 10%, solvent: water) [mg/g] | Solubility of Piroxicam ([1]; Control (none), no solubilizer, solvent: water) [mg/g] | Solubility of Piroxicam ([1]; Di-isopropanolamine 10%, solvent: water) [mg/g] | Solubility of Piroxicam ([1]; Di-isopropyl adipate 10%, solvent: 1:1 water-ethanol) [mg/g] | Solubility of Piroxicam ([1]; Diethanolamine 10%, solvent: water) [mg/g] | Solubility of Piroxicam ([1]; Diethyl sebacate 10%, solvent: 1:1 water-ethanol) [mg/g] | Solubility of Piroxicam ([1]; Ethanolamine 10%, solvent: water) [mg/g] | Solubility of Piroxicam ([1]; Isopropyl myristate 10%, solvent: 1:1 water-ethanol) [mg/g] | Solubility of Piroxicam ([1]; N-Ethyl-o-crotonotoluidide 10%, solvent: 1:1 water-ethanol) [mg/g] | % Inhibition of edema [2] [%] | Chemical stability [3] | Liposolubility [4] | Solubility in water [4] | Absorption through skin ([5]; compounded in suspension with conventional bases for ointment or cream) | Absorption through skin ([5]; tincture, dissolved in an alcoholic solvent such as ethanol) | Solubility relative to piroxicam [4] |
| --- | --- | --- | --- | --- | --- | --- | --- | --- | --- | --- | --- | --- | --- | --- | --- | --- |
| CN1C(C(=O)Nc2ccccn2)=C(O)c2ccccc2S1(=O)=O [Piroxicam, N-(2-pyridyl)-2-methyl-4-hydroxy-2H-1,2-benzothiazine-3-carboxamide 1,1-dioxide] | 60.0 | 0.01 | 195 | 1.2 | 204 | 2.0 | 392 | 0.4 | 1.8 | 39.6 | chemically unstable and may even decompose or deteriorate in quality | not liposoluble | sparingly soluble in water; also recorded: sparingly soluble in water or any other solvent | poorly absorbed through skin | will not be absorbed through the skin | – |
| CN1C(C(=O)Nc2ccccn2)=C(O)c2ccccc2S1(=O)=O [hydrate] | – | – | – | – | – | – | – | – | – | – | – | – | – | – | – | less soluble than piroxicam itself |
